Earlier results on three compounds are cited in US20040151761A1, “Methods and compositions utilizing astaxanthin” (priority 2003, published 2004).

Data set [1] deals with chemical-induced carcinogenesis. The settings on record: mice; cited from earlier work.
In another data set the test system is lymphocyte. The settings on record: rats; cited from earlier work.
Data set [2] has as its system tumor necrosis factor (TNF). The settings on record: hamsters; cited from earlier work.
The next data set deals with human neuroblastoma cell. The settings on record: cited from earlier work.
Another data set has as its system mouse splenocytes. The settings on record: cultured cell assay (Jyonouchi et al.); cited from earlier work.
The conditions of data set [3]: cited from earlier work.
Another data set deals with IgG. The settings on record: dogs, 20 mg; cited from earlier work.

In the case of `CC1=C(/C=C/C(C)=C/C=C/C(C)=C/C=C/C=C(C)/C=C/C=C(C)/C=C/C2=C(C)C(=O)CCC2(C)C)C(C)(C)CCC1=O` [canthaxanthin], the chemical-induced carcinogenesis entry in data set [1] is on record as “prevent chemical-induced carcinogenesis”. In addition, the lymphocyte proliferation entry with lymphocyte is “increases lymphocyte proliferation”. Further, in data set [2], the “production of tumor necrosis factor (TNF) by macrophages” value was “enhances the production of tumor necrosis factor (TNF)”.
Consider `CC1=C(/C=C/C(C)=C/C=C/C(C)=C/C=C/C=C(C)/C=C/C=C(C)/C=C/C2=C(C)CCCC2(C)C)C(C)(C)CCC1` [beta-carotene], for which the “human neuroblastoma cell proliferation” value in the data set on human neuroblastoma cell is listed as “inhibit human neuroblastoma cell proliferation”. For the same compound, in the data set with mouse splenocytes, the “in vitro antibody response of mouse splenocytes to T-dependent antigens” value is recorded as “increase in vitro antibody response”. Also, in data set [3] (cats (Schweigert et al. 2002)), the “conversion of beta-carotene to vitamin A” value is recorded as “not accompanied by conversion of beta-carotene to vitamin A”. Moreover, the absorption of beta-carotene result in data set [3] (domestic cats (Chew et al. 2000)) was “readily absorb beta-carotene”. For the same compound, the “plasma IgG concentration versus un-supplemented animals” value with IgG is listed as “higher concentrations of plasma IgG than un-supplemented animals”.
Regarding `CC1=C[C@H](O)CC(C)(C)[C@H]1/C=C/C(C)=C/C=C/C(C)=C/C=C/C=C(C)/C=C/C=C(C)/C=C/C1=C(C)C[C@@H](O)CC1(C)C` [lutein], in the data set with IgG, the “plasma IgG concentration versus un-supplemented animals” value is on record as “higher concentrations of plasma IgG than un-supplemented animals”.
